Reference: publication PMC7297445, “Pharmacokinetic/Pharmacodynamic Determination and Preclinical Pharmacokinetics of the β-Lactamase Inhibitor ETX1317 and Its Orally Available Prodrug ETX0282” (ACS Infectious Diseases, 2020)
“Also recorded” adds a separate entry of the source.

How the values were obtained:
E. coli ARC2687 = assay: Murine neutropenic thigh infection model; assay type: in vivo, mouse
Protocol: (§1) In vivo neutropenic infection models in the mouse were conducted as previously described.[48],[49] All procedures were performed to Entasis approved IACUC policies and guidelines as well as OLAW standards. Briefly, Female CD-1 mice (20–22 g, Charles River Laboratories) were acclimated for 5 days prior to start of study. Animals were housed 3 per cage with free access to food and water. Mice were rendered neutropenic via two doses of cyclophosphamide on days −4 and −1 with 150 mg/kg and 100 mg/kg delivered intraperitoneally in a dose volume of 10 mL/kg, respectively.[48]
(§2) Enterobacteriaceae isolates ARC2687, ARC4488, ARC5118, NMC101, and ARC4419 were prepared for infection from an overnight plate culture. A portion of the plate was resuspended in sterile saline and adjusted to an OD of 0.1 at 625 nm. The adjusted bacterial suspension was further diluted to target an infecting inoculum of approximately 5.0 × 10^6–1.0 × 10^7 CFU/mouse. The actual inoculum size varied between 5.5 × 10^6–1.6 × 10^6 CFU/thigh and administered via intramuscular injection of (100 μL). Plate counts of the inoculum were performed to confirm inoculum concentration and treatment was initiated 2 h after bacterial challenge.
(§3) ETX0282 and CPDP were formulated in 0.5% HPMC/0.1% Tween 80 suspension. meropenem (utilized as a positive control) was solubilized in water for injection. All studies utilized a meropenem dosed at 600 mg/kg q6h subcutaneously as positive control against meropenem sensitive isolates (MIC ≤ 2 μg/mL) and as a negative control against meropenem resistant isolates. For dose arms utilizing a combination of ETX0282 and CPDP, both agents were reconstituted in the same vehicle. All dose concentrations were adjusted to deliver targeted mg/kg doses within a dose volume of 10 mL/kg. Formulation potency was verified by LC/MS/MS.
(§4) ETX0282 and CPDP were administered via q6h dose intervals in order to achieve targeted unbound exposures. At 24 h post initiation of therapy, animals were euthanized, tissue samples aseptically collected and homogenized. Bacterial colony enumeration of tissue homogenate was performed by serial dilution on TSA plates which were incubated overnight at 35 °C prior to colony (CFU) counting.

K. pneumoniae ARC5118 = assay: Murine neutropenic thigh infection model; assay type: in vivo, mouse; settings: 50 mg/kg p.o./q6h
Protocol: as §1, §2, §3, §4

K. pneumoniae ARC4488 = assay: Murine neutropenic thigh infection model; assay type: in vivo, mouse; settings: 50 mg/kg p.o./q6h
Protocol: as §1, §2, §3, §4

E. coli NMC101 = assay: Murine neutropenic thigh infection model; assay type: in vivo, mouse
Protocol: (§5) To further understand whether this in vitro activity translated to in vivo efficacy, an additional neutropenic thigh study was conducted in mice with increasing doses of ETX0282 alone vs E. coli NMC101 (ETX1317 MICBLI = 1 μg/mL) and ARC4419 (ETX1317 MICBLI = 0.25 μg/mL). […] Despite the significant exposure of ETX1317, a 200 mg/kg q6h dose of ETX0282 alone was ineffective for both strains (Table 6).
as §1, §2, §3, §4

E. coli ARC4419 = assay: Murine neutropenic thigh infection model; assay type: in vivo, mouse
Protocol: as §5, §1, §2, §3, §4

[1] = test system: E. coli strain (ATCC 25922); assay: Murine neutropenic thigh model, CPDP dose range study; assay type: in vivo, mouse; settings: 50 mg/kg oral q6h, administered alone
Source text: All in vivo efficacy studies were supported with PK of ETX1317 and CPD following oral administration of ETX0282 and CPDP. For the purposes of understanding the exposure-PD response relationship, total systemic concentrations of ETX1317 and cefpodoxime were normalized to unbound drug levels after accounting for protein binding with percent unbound estimates of 93% and 66%, respectively, in mouse plasma (Table S2). An in vivo dose range study with CPDP administered alone against a susceptible E. coli strain (ATCC 25922, CPD MIC = 0.5 μg/mL) was completed initially in a murine neutropenic thigh model to confirm its PK/PD target. In this study a 50 mg/kg oral dose of CPDP administered q6h was consistent with achieving 1–log kill over 24 h. […] Oral exposure was generally dose proportional to 50 mg/kg; however, it became less than dose proportional at ≥200 mg/kg.
as §1, with “Mice were rendered neutropenic via two doses of cyclophosphamide on days −4 and −1 with 150 mg/kg and 100 mg/kg delivered intraperitoneally in a dose volume of 10 mL/kg, respectively.[48]” left out

[2] = Mouse oral pharmacokinetics (satellite infected animals); assay type: in vivo; settings: after oral administration in mice
[3] = Human PK prediction (allometric scaling); settings: based upon non-clinical PK data
Source text: The methodology utilized for prediction of human PK of ETX1317 was consistent with methods used in support of similar chemotypes such as avibactam and ETX2514.[43] Human predictions for volume of distribution (Vd,ss) and clearance (CL) were within 2-fold of observed mean data obtained in Phase 1 studies, with renal clearance as the predominant clearance mechanism.[44],[45] Pharmacokinetic and excretion data from rats, dogs, and monkeys were used collectively for the projection of ETX1317 PK. Liver S9 incubations were also performed across all species (including human) to confirm consistent conversion of ETX0282 to ETX1317 at projected dose levels of ETX0282.[42] Human PK prediction of ETX1317 was completed using single species allometry for volume of distribution from dog PK and dog and monkey single species scaling using liver blood flow to predict non-renal clearance (CLNR).[46] […] While urinary excretion of ETX1317 was lower in dogs relative to monkeys and rats, human renal clearance (CLR) was predicted using dog-human renal correlation,[47] as this method has been highly predictive for compounds that are generally eliminated via renal excretion. The elimination half-life was estimated based upon the combined use of predicted parameters for clearance and volume of distribution, where T1/2 = ln 2*Vd,ss/CLtotal. Allometric scaling predicted human Vd,ss of 0.35 L/kg.
(§6) Based upon the non-clinical PK data, a range of 60–80% bioavailability and a moderate absorption rate of 0.5–1.0 h^–1 have been considered for humans. In consideration of these predicted parameters, mean percent fT > CT of 1 μg/mL (2× MIC of 0.5 μg/mL) estimates for a 500 mg ETX1317 equiv q12h dose of ETX0282 are summarized in Table S3.

[4] = parameters: method as in PMID 32658473; settings: across all species, including humans; cited from earlier work
[5] = Low-dose oral PK of ETX0282 across rats, dogs and monkeys; assay type: in vivo; settings: oral 1 to 10 mg/kg
Protocol: Intravenous and oral pharmacokinetics of ETX1317 and ETX0282 in preclinical species are summarized in Table 7 and Table S1, respectively. Time vs concentration profiles are depicted graphically in Figure S1.
as §6
Intravenous pharmacokinetics of ETX1317 investigated in jugular vein cannulated male Sprague–Dawley rats (Charles River Laboratories, n = 3/route) at a dose of 10 mg/kg formulated in 0.9% saline. Oral pharmacokinetics of ETX0282 was evaluated at a 10 mg/kg equivalent dose of ETX1317 formulated in 25:75 PEG 400:WFI. The pH of each formulation was verified to fall within a range of 4–7 and were confirmed to be in solution prior to dosing. Potency was verified by LC/MS/MS. Dose volumes were 5 and 10 mL/kg for ETX1317(i.v.) and ETX0282(p.o.), respectively for rats. In both dog (male, 3/route) and monkey (male, 3/route) studies, i.v. and p.o. doses were formulated on 25:75 PEG 400:WFI (pH ∼5) and administered at a dose of ∼1 mg/kg. Dose volume was 1 mL/kg for both routes in dogs and monkeys with the i.v. dose infused over 15 min. […]

[6] = parameters: method as in PMID 9950279; settings: oral; PEPT1 substrate; cited from earlier work
[7] = ETX0282 alone 200 mg/kg q6h, combination 50:50 mg/kg q6h

Structure (SMILES)	log10 CFU/g thigh change 24 h post therapy initiation (E. coli ARC2687; 50 mg/kg p.o./q6h)	log10 CFU/g thigh change 24 h post therapy initiation (K. pneumoniae ARC5118)	log10 CFU/g thigh change 24 h post therapy initiation (K. pneumoniae ARC4488)	log10 CFU/g thigh change 24 h post therapy initiation (E. coli NMC101; 50 mg/kg p.o./q6h)	log10 CFU/g thigh change 24 h post therapy initiation (E. coli ARC4419; 50 mg/kg p.o./q6h)	efficacy over 24 h [1]	systemic concentrations of intact prodrug [2]	absorption rate considered for humans [3]	conversion of ETX0282 to ETX1317 in liver S9 [4]	circulating levels of intact prodrug [5]	log10 CFU/g thigh change 24 h post therapy initiation (E. coli ARC2687; 10 mg/kg p.o./q6h (footnote c))	log10 CFU/g thigh change 24 h post therapy initiation (E. coli NMC101; 10 mg/kg p.o./q6h)	log10 CFU/g thigh change 24 h post therapy initiation (E. coli NMC101; 200 mg/kg p.o./q6h)	in vivo efficacy in words (E. coli NMC101; [7])	log10 CFU/g thigh change 24 h post therapy initiation (E. coli ARC4419; 10 mg/kg p.o./q6h)	log10 CFU/g thigh change 24 h post therapy initiation (E. coli ARC4419; 200 mg/kg p.o./q6h)	in vivo efficacy in words (E. coli ARC4419; [7])	bioavailability [6]
COCC1=C(C(=O)OC(C)OC(=O)OC(C)C)N2C(=O)[C@@H](NC(=O)/C(=N\OC)c3csc(N)n3)[C@H]2SC1 (stereo partly shown) [CPDP, cefpodoxime proxetil]	+3.61 log10 CFU/g	+2.66 log10 CFU/g	+3.58 log10 CFU/g	+3.39 log10 CFU/g	+2.23 log10 CFU/g	1–log kill	No concentrations of intact CPDP and ETX0282 were observed systemically											
CC1=C[C@@H](C(N)=O)N2C[C@@H]1N(O[C@H](F)C(=O)OC(C)C)C2=O [ETX0282]		+1.31 log10 CFU/g		+1.83 log10 CFU/g	+1.06 log10 CFU/g		No concentrations of intact CPDP and ETX0282 were observed systemically	0.5–1.0 h^–1	efficient conversion; also recorded: Extensive and quantitative conversion	minimal to no levels of ETX0282	+2.93 ^c log10 CFU/g	+2.10 log10 CFU/g	+1.39 log10 CFU/g	ineffective	+1.41 log10 CFU/g	+1.07 log10 CFU/g	ineffective	
CC1(C)S[C@@H]2[C@H](NC(=O)[C@H](N)c3ccc(O)cc3)C(=O)N2[C@H]1C(=O)O [amoxicillin]																		> 70%
